Measured values reported in patent US20120202794A1 (priority 2011, published 2012).

What was measured:
HCV Replicon 1b = assay: HCV inhibition assay, HCV replicon 1b (Clone A or ET-lunet cells; RT-PCR or luciferase reporter); format: cell-based; details: Hepatitis C virus, 96 h, HCV replicon 1b; 4 days incubation; read-out: Replicon 1b potency EC90
Procedure: HCV inhibition assay. Clone A or ET-lunet cells were seeded at a density of 1500 or 3000 cells per well in a 96-well plate, respectively. Test compounds serially diluted in culture medium without G418 were added to cells so that the final DMSO concentration was 0.5%. Plates were incubated at 37° C. in a 5% CO2 atmosphere for 4 days. Inhibition of HCV RNA replication was determined by real time PCR (RT-PCR) or by measuring the levels of luminescence expressed via the luciferase reporter gene encoded within the ET replicon. Briefly, for the RT-PCR assay, total RNA was extracted using the RNeasy-96 kit as recommended by the manufacturer (Qiagen, Valencia, Calif.), reversed transcribed into cDNA, and amplified using primer and probe mix for HCV 5′-NTR RNA and human ribosomal RNA (rRNA) in a one-step RT-PCR reaction as described previously (50). A relative quantification method was used to determine the extent of inhibition. The threshold cycle (Ct) of rRNA was subtracted from the Ct of HCV RNA (ΔCt). The average ΔCt of the DMSO cell controls was then subtracted from the ΔCt of the compound treated sample (ΔΔCt). Percent inhibition was determined by using the following equation: %=(1−(2^−ΔΔC^t))×100. For the luciferase-based replicon assay, luminescence was measured by using a Victor3 plate reader (Perkin-Elmer, Boston, Mass.) following the addition of Bright-Glo reagent as recommended by the manufacturer (Promega, Madison, Wis.). Percent inhibition of HCV replication was determined by comparing the change in luminescence of the drug treated wells versus the DMSO cell controls. EC50 and EC90 values, the concentrations at which 50% and 90% inhibition were achieved, were determined using the GraphPad Prism software (San Diego, Calif.).

[1] = Cell cytotoxicity assay (MTS), CC90 as reported in Table 1, cell line not stated; format: cell-based; details: human; cell line not given
Procedure: Cell cytotoxicity assays. Each compound (serially diluted from 100 μM) was added to Huh7 (2×10^3 cells/well), HepG2 (2×10^3 cells/well), BxPC3 (2×10^3 cells/well), or CEM (5×10^3 cells/well) cells and allowed to incubate for 8 days at 37° C. A medium only control was used to determine the minimum absorbance value […]. At the end of the growth period, MTS dye from the CellTiter 96 Aqueous One Solution Cell Proliferation Assay kit (Promega) was added to each well and the plate was incubated for an additional 2 hours. The absorbance at 490 nm was read with a Victor3 plate reader (Perkin Elmer) using the medium only control wells as blanks. The 90% inhibition value (CC90) was determined by comparing the absorbance in wells containing cells and test compound to untreated cell control wells.

CC(C)C[C@H]1CN(C(=O)c2cc(-c3cccc(OC(F)(F)F)c3)on2)[C@@H](CC(C)C)C(=O)N1 [Compound 138]
EC90 (HCV Replicon 1b): 7040 nM
CC90 at 8 days [1]: > 10000 nM

CC(C)C[C@H]1CN(C(=O)c2cc(-c3ccc(C(=O)N(C)C)cc3)on2)[C@@H](CC(C)C)C(=O)N1 [Compound 139]
EC90 (HCV Replicon 1b): > 10000 nM
CC90 at 8 days [1]: > 10000 nM

CC(C)C[C@H]1CN(C(=O)c2cc(-c3ccc(N(C)C)cc3)on2)[C@@H](CC(C)C)C(=O)N1 [Compound 140]
EC90 (HCV Replicon 1b): > 10000 nM
CC90 at 8 days [1]: > 10000 nM

CC(C)C[C@H]1CN(C(=O)c2cc(-c3ccc(F)c(Cl)c3)on2)[C@@H](CC(C)C)C(=O)N1 [Compound 141]
EC90 (HCV Replicon 1b): 1780 nM
CC90 at 8 days [1]: > 10000 nM

CC(C)C[C@H]1CN(C(=O)c2cc(-c3ccccc3F)on2)[C@@H](CC(C)C)C(=O)N1 [Compound 142]
EC90 (HCV Replicon 1b): 2010 nM
CC90 at 8 days [1]: > 10000 nM

CC(C)C[C@H]1CN(C(=O)c2cc(-c3ccc(Cl)cc3F)on2)[C@@H](CC(C)C)C(=O)N1 [Compound 143]
EC90 (HCV Replicon 1b): 1210 nM
CC90 at 8 days [1]: > 10000 nM

CC(C)C[C@H]1CN(C(=O)c2cc(-c3ccc(F)cc3)no2)[C@@H](CC(C)C)C(=O)N1 [Compound 144]
EC90 (HCV Replicon 1b): 330 nM
CC90 at 8 days [1]: > 10000 nM

CC(C)C[C@H]1C(=O)N[C@@H](c2ccccc2)CN1C(=O)c1cc(-c2ccc(F)cc2)no1 [Compound 145]
EC90 (HCV Replicon 1b): 230 nM
CC90 at 8 days [1]: > 10000 nM

CC(C)C[C@H]1C(=O)N[C@@H](C(C)C)CN1C(=O)c1cc(-c2ccc(F)cc2)no1 [Compound 146]
EC90 (HCV Replicon 1b): 730 nM
CC90 at 8 days [1]: > 10000 nM

CSC[C@H]1CN(C(=O)c2cc(-c3ccc(F)cc3)no2)[C@@H](CC(C)C)C(=O)N1 [Compound 147]
EC90 (HCV Replicon 1b): 1270 nM
CC90 at 8 days [1]: > 10000 nM

CC(C)C[C@H]1CN(C(=O)c2nc(-c3ccc(F)cc3)no2)[C@@H](CC(C)C)C(=O)N1 [Compound 148]
EC90 (HCV Replicon 1b): 370 nM
CC90 at 8 days [1]: > 10000 nM

CCC[C@H]1CN(C(=O)c2nc(-c3ccc(F)cc3)no2)[C@@H](CC(C)C)C(=O)N1 [Compound 149]
EC90 (HCV Replicon 1b): 50 nM
CC90 at 8 days [1]: > 10000 nM

CCC[C@H]1CN(C(=O)c2nc(-c3ccccc3)no2)[C@@H](CC(C)C)C(=O)N1 [Compound 150]
EC90 (HCV Replicon 1b): 590 nM
CC90 at 8 days [1]: > 10000 nM

CC(C)C[C@H]1C(=O)N[C@@H](c2ccccc2)CN1C(=O)c1nc(-c2ccc(F)cc2)no1 [Compound 151]
EC90 (HCV Replicon 1b): 40 nM
CC90 at 8 days [1]: > 10000 nM

CC(C)C[C@H]1C(=O)N[C@@H](C2CCCC2)CN1C(=O)c1nc(-c2ccc(F)cc2)no1 [Compound 152]
EC90 (HCV Replicon 1b): 110 nM
CC90 at 8 days [1]: > 10000 nM

CC(C)C[C@H]1C(=O)N[C@@H](C(C)C)CN1C(=O)c1nc(-c2ccc(F)cc2)no1 [Compound 153]
EC90 (HCV Replicon 1b): 220 nM
CC90 at 8 days [1]: > 10000 nM

CSC[C@H]1CN(C(=O)c2nc(-c3ccc(F)cc3)no2)[C@@H](CC(C)C)C(=O)N1 [Compound 154]
EC90 (HCV Replicon 1b): 780 nM
CC90 at 8 days [1]: > 10000 nM

CC(C)C[C@H]1CN(C(=O)c2cc(-c3ccc([N+](=O)[O-])cc3)on2)[C@@H](CC(C)C)C(=O)N1 [Compound 155]
EC90 (HCV Replicon 1b): 2600 nM
CC90 at 8 days [1]: > 10000 nM

CC(C)C[C@H]1C(=O)N[C@@H](C2CCCCC2)CN1C(=O)c1cc(-c2ccc(F)cc2F)on1 [Compound 156]
EC90 (HCV Replicon 1b): 1150 nM
CC90 at 8 days [1]: > 10000 nM

CC(C)C[C@H]1C(=O)N[C@@H](C2CCCC2)CN1C(=O)c1cc(-c2ccc(F)cc2F)on1 [Compound 157]
EC90 (HCV Replicon 1b): 490 nM
CC90 at 8 days [1]: > 10000 nM

CCC[C@H]1CN(C(=O)c2cc(-c3ccc(Cl)c(F)c3)on2)[C@@H](CC(C)C)C(=O)N1 [Compound 158]
EC90 (HCV Replicon 1b): 440 nM
CC90 at 8 days [1]: > 10000 nM

CC(C)C[C@H]1C(=O)N[C@@H](C2CCCCC2)CN1C(=O)c1cc(-c2ccc(Cl)c(F)c2)on1 [Compound 159]
EC90 (HCV Replicon 1b): 710 nM
CC90 at 8 days [1]: > 10000 nM

CC(C)C[C@H]1C(=O)N[C@@H](C2CCCC2)CN1C(=O)c1cc(-c2ccc(Cl)c(F)c2)on1 [Compound 160]
EC90 (HCV Replicon 1b): 410 nM
CC90 at 8 days [1]: > 10000 nM

CCC[C@H]1CN(C(=O)c2cc(-c3ccc(F)cc3)on2)[C@@H](CC(C)C)C(=O)N1 [Compound 161]
EC90 (HCV Replicon 1b): 70 nM
CC90 at 8 days [1]: > 10000 nM

CC(C)C[C@H]1C(=O)N[C@@H](C2CCCCC2)CN1C(=O)c1cc(-c2ccc(F)cc2)on1 [Compound 162]
EC90 (HCV Replicon 1b): 1800 nM
CC90 at 8 days [1]: > 10000 nM
